Target: T1, Human-alpha thrombin (Homo sapiens, UniProt P00734)
T1 construct: Human-alpha thrombin and its well-known aptamers, HD1
Assay: Covalent conjugation of oxanine-containing aptamer to thrombin, conversion rate over time (SDS-PAGE/electrophoresis)
Assay type: biochemical
Conditions: thrombin 1.25 μM, HEPES pH 8.4, 37° C., FIG. 3
Protocol: Human-alpha thrombin and its well-known aptamers, HD1 (15-mer length of aptamer that binds to exosite I of thrombin; 5′-[…]-3′; SEQ ID NO: 1) and HD2 (29-mer length of aptamer that binds to exosite II of thrombin; 5′-[…]-3′; SEQ ID NO: 2) were used. Each aptamer labeled with fluorescent dye at 5′-terminus and 10 dOTPs at 3′-terminus was prepared (See Example 1-1) and mixed with thrombin. Specifically, thrombin (1.25 μM), NaCl (100 mM), MgCl2 (5 mM), KCl (5 mM), Tween-20 (0.01% v/v), and oxanine-inserted HD1 (1 equiv. relative to thrombin) and HD2 (2 equiv. relative to thrombin) in HEPES (50 mM pH 8.4) were mixed at 37° C. for 1 day.
Whether the aptamer brings oxanine close to the amine group of the target protein, enabling proximity-enhanced covalent bond formation, was monitored with SDS-PAGE (protein bands) and electrophoresis (DNA bands). As a comparison group, aptamers HD1 and HD2 without oxanine introduced, or random DNA (not aptamer) with oxanine introduced, were used, and an untreated control group without any treatment with thrombin was also used for comparison.

| Substance | time to reach 50% modification rate (conversion of aptamer to aptamer-thrombin conjugate) |
| --- | --- |
| HD1: 15-mer thrombin exosite I aptamer 5′-GGTTGGTGTGGTTGG-3′ with fluorescent dye at 5′-terminus and 10 dOTPs (oxanine) at 3′-terminus (DNA, backbone not given here; 5' fluorescent dye, 3' tail of ten oxanine deoxynucleotides) | ≤ 12.6 min |
| HD22: 29-mer thrombin exosite II aptamer 5′-AGTCCGTGGTAGGGCAGGTTGGGGTGACT-3′ with fluorescent dye at 5′-terminus and 10 dOTPs (oxanine) at 3′-terminus (DNA, backbone not given here; 5' fluorescent dye, 3' tail of ten oxanine deoxynucleotides) | ≤ 101 min |
